Test results reported in PubChem BioAssay AID248 (DTP/NCI, 2004).
Toxic doses and inconclusive results are not listed. No stated cut-off is given here; in the data, active means T/C of 150% or more; inactive means T/C below 125%.

System: L1210 leukemia ip in BDF1 mice, survival T/C
Test: NCI In Vivo Anticancer Drug Screen. Data for tumor model L1210 Leukemia (intraperitoneal) in B6D2F1 (BDF1) mice
Details: endpoint: mean survival time, higher = longer survival
Outline: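 Mice bearing the transplanted tumor received compound or vehicle. Survival of the treated group was divided by that of the vehicle-treated control group to give the ratio.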

[1] = dose: 100.0 mg/kg/injection, schedule: Q01DX009 (ip), vehicle: Klucel (hydroxypropylcellulose) (HPC)
[2] = dose: 200.0 mg/kg/injection, schedule: Q01DX009 (ip), vehicle: Klucel (hydroxypropylcellulose) (HPC)
[3] = dose: 100.0 mg/kg/injection, schedule: Q04DX003 (ip), vehicle: saline
[4] = dose: 200.0 mg/kg/injection, schedule: Q04DX003 (ip), vehicle: saline
[5] = dose: 400.0 mg/kg/injection, schedule: Q04DX003 (ip), vehicle: saline
[6] = dose: 100.0 mg/kg/injection, schedule: Q01DX001 (ip), vehicle: saline
[7] = dose: 75.0 mg/kg/injection, schedule: Q01DX001 (ip), vehicle: saline
[8] = dose: 150.0 mg/kg/injection, schedule: Q01DX001 (ip), vehicle: saline
[9] = dose: 300.0 mg/kg/injection, schedule: Q01DX001 (ip), vehicle: saline
[10] = dose: 100.0 mg/kg/injection, schedule: Q04DX003 (ip), vehicle: Klucel (hydroxypropylcellulose) (HPC)
[11] = dose: 200.0 mg/kg/injection, schedule: Q04DX003 (ip), vehicle: Klucel (hydroxypropylcellulose) (HPC)
[12] = dose: 400.0 mg/kg/injection, schedule: Q04DX003 (ip), vehicle: Klucel (hydroxypropylcellulose) (HPC)
[13] = dose: 5.0 mg/kg/injection, schedule: Q01DX001 (ip), vehicle: saline
[14] = dose: 10.0 mg/kg/injection, schedule: Q01DX001 (ip), vehicle: saline
[15] = dose: 20.0 mg/kg/injection, schedule: Q01DX001 (ip), vehicle: saline
[16] = dose: 40.0 mg/kg/injection, schedule: Q01DX001 (ip), vehicle: saline
[17] = dose: 100.0 mg/kg/injection, schedule: Q04DX002 (ip), vehicle: saline with Tween-80
[18] = dose: 200.0 mg/kg/injection, schedule: Q04DX002 (ip), vehicle: saline with Tween-80
[19] = dose: 400.0 mg/kg/injection, schedule: Q04DX002 (ip), vehicle: saline with Tween-80
[20] = dose: 100.0 mg/kg/injection, schedule: Q04DX003 (ip), vehicle: saline with Tween-80
[21] = dose: 200.0 mg/kg/injection, schedule: Q04DX003 (ip), vehicle: saline with Tween-80
[22] = dose: 400.0 mg/kg/injection, schedule: Q04DX003 (ip), vehicle: saline with Tween-80

Measured: T/C

CN(C)c1ccc([PH+](c2ccc(N(C)C)cc2)c2ccc(N(C)C)cc2)cc1.CN(C)c1ccc([PH+](c2ccc(N(C)C)cc2)c2ccc(N(C)C)cc2)cc1.[Cl][Hg][Cl]
inactive: dose: 50.0 mg/kg/injection, schedule: Q01DX009 (ip), vehicle: Klucel (hydroxypropylcellulose) (HPC) 94 % of control | [1] 90 % of control | [2] 90 % of control

O=C(CCCO)N/N=C\c1ccc([N+](=O)[O-])s1
inactive: [3] 95 % of control | [4] 93 % of control | [5] 101 % of control

[O-]/[N+](=C\c1ccccc1)Cc1ccccc1
inactive: dose: 100.0 mg/kg/injection, schedule: Q04DX003 (ip), vehicle: carboxymethylcellulose (CMC) 94 % of control | dose: 200.0 mg/kg/injection, schedule: Q04DX003 (ip), vehicle: carboxymethylcellulose (CMC) 97 % of control

COc1ccc2c3c1OC1C(OC(C)=O)=CCC4C(C2)N(C)CCC314 (stereo not given)
inactive: [6] 93 % of control

COc1ccc2c(c1O)C1(CCN(C)C)CC(=O)CCC1C=C2 (stereo not given)
inactive: [7] 96 % of control | [8] 100 % of control | [9] 89 % of control

CNc1n[nH]c(=S)s1
inactive: dose: 100.0 mg/kg/injection, schedule: Q04DX002 (ip), vehicle: Klucel (hydroxypropylcellulose) (HPC) 101 % of control | dose: 200.0 mg/kg/injection, schedule: Q04DX002 (ip), vehicle: Klucel (hydroxypropylcellulose) (HPC) 104 % of control | dose: 400.0 mg/kg/injection, schedule: Q04DX002 (ip), vehicle: Klucel (hydroxypropylcellulose) (HPC) 104 % of control

O=C1C=Cc2ccccc2C1=O
inactive: dose: 0.78 mg/kg/injection, schedule: Q01DX001 (ip), vehicle: Klucel (hydroxypropylcellulose) (HPC) 103 % of control | dose: 1.56 mg/kg/injection, schedule: Q01DX001 (ip), vehicle: Klucel (hydroxypropylcellulose) (HPC) 95 % of control | dose: 3.13 mg/kg/injection, schedule: Q01DX001 (ip), vehicle: Klucel (hydroxypropylcellulose) (HPC) 88 % of control

CCOC(=O)CCC1CCCC1CC(=O)OCC (stereo not given)
inactive: dose: 100.0 mg/kg/injection, schedule: Q01DX001 (ip), vehicle: acetone 97 % of control | dose: 200.0 mg/kg/injection, schedule: Q01DX001 (ip), vehicle: acetone 101 % of control | dose: 400.0 mg/kg/injection, schedule: Q01DX001 (ip), vehicle: acetone 86 % of control

CCCCC(C(=O)OCC)C(CCC1CCCCC1)(C(=O)OCC)C(=O)OCC (stereo not given)
inactive: [1] 95 % of control | [10] 96 % of control | [2] 110 % of control | [11] 106 % of control | dose: 400.0 mg/kg/injection, schedule: Q01DX009 (ip), vehicle: Klucel (hydroxypropylcellulose) (HPC) 105 % of control | [12] 95 % of control

COc1cc(OC)c(N=Nc2sc(N)nc2C)cc1Cl
inactive: [7] 92 % of control | [8] 97 % of control | [9] 94 % of control

O=c1ccccn1Cc1ccccc1
inactive: [10] 106 % of control | [11] 117 % of control | [12] 98 % of control

OCCCN=Cc1ccccc1O.[Co]
inactive: [13] 100 % of control | [14] 94 % of control | [15] 100 % of control | [16] 102 % of control | dose: 80.0 mg/kg/injection, schedule: Q01DX001 (ip), vehicle: saline 105 % of control

CC(=O)NC1CCC(/C=C(\C#N)C2CCC([N+](=O)[O-])CC2)CC1 (stereo not given)
inactive: dose: 25.0 mg/kg/injection, schedule: Q04DX002 (ip), vehicle: saline with Tween-80 97 % of control | dose: 50.0 mg/kg/injection, schedule: Q04DX002 (ip), vehicle: saline with Tween-80 94 % of control | [17] 94 % of control | [18] 86 % of control | [19] 104 % of control

N=C(CC(=O)Nc1ccccc1)c1ccccc1
inactive: dose: 50.0 mg/kg/injection, schedule: Q01DX001 (ip), vehicle: saline 101 % of control | [6] 96 % of control | dose: 200.0 mg/kg/injection, schedule: Q01DX001 (ip), vehicle: saline 102 % of control | dose: 400.0 mg/kg/injection, schedule: Q01DX001 (ip), vehicle: saline 101 % of control

Nc1ccc(S(=O)(=O)Nc2ccc(C(=O)O)cc2)cc1
inactive: [20] 98 % of control | [21] 98 % of control | [22] 98 % of control

C#CC(OC(=O)N(C)C)(c1ccccc1)c1ccc(F)cc1 (stereo not given)
inactive: [13] 108 % of control | [14] 105 % of control | [15] 109 % of control | [16] 117 % of control

O=c1cc(Nc2cccc(-c3ccccc3)c2)[nH]c(=O)[nH]1
inactive: dose: 87.5 mg/kg/injection, schedule: Q01DX001 (ip), vehicle: gum acacia 90 % of control | dose: 175.0 mg/kg/injection, schedule: Q01DX001 (ip), vehicle: gum acacia 102 % of control | dose: 350.0 mg/kg/injection, schedule: Q01DX001 (ip), vehicle: gum acacia 95 % of control

CCOC(=O)c1ccc(C(=O)OCC)nc1
inactive: dose: 12.5 mg/kg/injection, schedule: Q01DX009 (ip), vehicle: saline 109 % of control | dose: 25.0 mg/kg/injection, schedule: Q01DX009 (ip), vehicle: saline 94 % of control | dose: 50.0 mg/kg/injection, schedule: Q01DX009 (ip), vehicle: saline 101 % of control | dose: 100.0 mg/kg/injection, schedule: Q01DX009 (ip), vehicle: saline with Tween-80 87 % of control | [20] 101 % of control | [21] 106 % of control | [22] 103 % of control

COc1ccccc1N=C(N)N=C(N)N
inactive: [7] 96 % of control | [8] 104 % of control

C=Cc1ccc(C(=O)O)cc1
inactive: [17] 98 % of control | [18] 98 % of control | [19] 106 % of control

CCNC(=O)c1cc2cccc(OC)c2oc1=N
inactive: [3] 105 % of control | [4] 97 % of control | [5] 90 % of control

CC(=O)NC(=O)Nc1ccccc1
inactive: [10] 94 % of control | [11] 103 % of control | [12] 95 % of control
